Literature values, collected in patent US8691514B2, “Method for selective control of helper T cell function” (Japan Science and Technology Agency, priority 2008, dated 2014).

Key:
CD4 positive T cell = details: treated with GlcCer synthetase inhibitor; Nagafuku et al. 2003, Blank et al. 2005
CD8 positive T cell = details: treated with GlcCer synthetase inhibitor; Nagafuku et al. 2003, Blank et al. 2005

For CCCCCCCCCC(=O)N[C@H](CN1CCOCC1)[C@H](O)c1ccccc1.Cl [D-PDMP, D-threo-1-phenyl-2-decanoylamiono-3-morpholino-1-prppanol.HCl], the “function of the CD4 positive T cell” value (CD4 positive T cell) is given as “suppressed” and the “function of the CD8 positive T cell” value (CD8 positive T cell) is given as “suppressed”.
